The source of these data is patent US20100226966A1, “Method for transdermal controlled release drug delivery” (priority 2009, published 2010).

Series [1] has as its system urinary cAMP. Kind of series: Urinary cAMP excretion after transdermal vs subcutaneous PTH delivery. Format: in vivo, human (healthy, young females). As to conditions: FIG. 15. The procedure: (§1) In this example, transdermal delivery of a PTH-based agent using a coated microprojection member was compared to conventional, subcutaneous delivery of teriparatide PTH (Forteo™). A dose-finding study was conducted with […], young females that received two treatments, separated by at least five days, according to randomly assigned sequence of 20 μg subcutaneous delivery of Forteo™ and 30 μg transdermal delivery of a PTH-based agent by coated microprojection. Bioavailability of transdermally delivered PTH was determined in 20 healthy, young females by administering two treatments, separated by at least five day, according to randomly assigned sequence of 40 μg subcutaneous delivery of Forteo™ and 30 μg transdermal delivery of a PTH-based agent by coated microprojection.
FIG. 12 further reflects a preferred pulsatile concentration profile of the PTH agent, i.e., rapid on-set and rapid off-set after reaching Cmax.

Series [2] can be described thus: Pharmacokinetics of hPTH (1-34) after IV, SC and coated microprojection array administration in hairless guinea pig. Format: in vivo. As to conditions: HGP; for dose absorbed/delivered: calculated against IV AUC.
The nature of series [3]: Clinical dose-finding and bioavailability study, transdermal coated microprojection vs subcutaneous Forteo, PTH plasma levels and safety. Format: in vivo, human (healthy, young females). On the procedure:
as §1
In the dose-finding study, two participants dropped out, eleven subjects participated and eight generated usable data. It was determined that three subjects had measurable PTH plasma levels following subcutaneous injection and eight subjects had measurable PTH plasma levels following transdermal delivery.

Series [4] can be described thus: Water solubility of PTH. Format: physicochemical. The note with it: at pH 5. The text has this:
Referring now to FIG. 10, there is shown a superposition of the mole ratios for acetic acid and the neutral form of hPTH(1-34). […] At pH 5, negligible amounts of PTH are present as PTH zero net charge (PTH 0). The PTH is also highly soluble in water at concentrations in excess of 20%. During drying and subsequent storage, the free acetic acid will evaporate inherently resulting in formation of the water insoluble PTH 0. Subsequent reconstitution in water will not allow total solubilization of PTH. Accordingly, the use of a low volatility counterion provides a solid soluble formulation of PTH as long as the pH is maintained at least 2.5 pH units, preferably 3 pH units, below the pI of PTH. Preferably, this can be achieved by providing at least about two low volatility counterions to each molecule of PTH.

For the molecule `CC[C@H](C)[C@H](NC(=O)[C@H](CCC(=O)O)NC(=O)[C@H](CO)NC(=O)[C@@H](NC(=O)[C@@H](N)CO)C(C)C)C(=O)N[C@@H](CCC(N)=O)C(=O)N[C@@H](CC(C)C)C(=O)N[C@@H](CCSC)C(=O)N[C@@H](Cc1cnc[nH]1)C(=O)N[C@@H](CC(N)=O)C(=O)N[C@@H](CC(C)C)C(=O)NCC(=O)N[C@@H](CCCCN)C(=O)N[C@@H](Cc1cnc[nH]1)C(=O)N[C@@H](CC(C)C)C(=O)N[C@@H](CC(N)=O)C(=O)N[C@@H](CO)C(=O)N[C@@H](CCSC)C(=O)N[C@@H](CCC(=O)O)C(=O)N[C@@H](CCCN=C(N)N)C(=O)N[C@H](C(=O)N[C@@H](CCC(=O)O)C(=O)N[C@@H](Cc1c[nH]c2ccccc12)C(=O)N[C@@H](CC(C)C)C(=O)N[C@@H](CCCN=C(N)N)C(=O)N[C@@H](CCCCN)C(=O)N[C@@H](CCCCN)C(=O)N[C@@H](CC(C)C)C(=O)N[C@@H](CCC(N)=O)C(=O)N[C@@H](CC(=O)O)C(=O)N[C@H](C(=O)N[C@@H](Cc1cnc[nH]1)C(=O)N[C@@H](CC(N)=O)C(=O)N[C@@H](Cc1ccccc1)C(=O)O)C(C)C)C(C)C` [hPTH (1-34)], the “biological activity as evidenced by urinary cAMP excretion” value in series [1] is “comparable to that following subcutaneous delivery”. In series [2] (IV, 22.5 μg), the “Fraction dose absorbed/delivered (%)” value amounted to 100%. The “dose absorbed/delivered” value is 8.2 ± 2.9 µg in series [2] (SC, 19.5 μg) and 6.6 ± 1.8 µg in series [2] (microprojection array, 40.0 μg). Besides, in series [2] (hairless, guinea pig, plasma, 22.5 ug, IV), the Cmax was 11.2 ng/mL. The “subjects with measurable PTH plasma levels” value was 15 subjects in series [3] (bioavailability study, subcutaneous delivery 40 μg, 20 subjects completed); 20 subjects in series [3] (bioavailability study, transdermal delivery 30 μg, 20 subjects completed); “three” in series [3] (dose-finding study, subcutaneous injection 20 μg, eight subjects with usable data); “eight” in series [3] (dose-finding study, transdermal delivery 30 μg, eight subjects with usable data). Moreover, the “solubility in water (concentration)” value in series [4] is listed as above 20%.

In general, Cmax refers to the maximum level reached in the sampled fluid or tissue.
